Measurements as given in BigSolDB 2.1.
Where a SMILES comes first, the peptide text is derived from it.

COC(=O)[C@H](Cc1ccccc1)NC(=O)[C@@H](N)CC(=O)O (H-Asp-Phe-OMe)
solubility (mole fraction)
Details	in ethanol	in methanol	in water
278.15 K	3.16e-05	0.000532	0.000338
283.15 K	4.53e-05	0.000593	0.000408
288.15 K	6.19e-05	0.000665	0.000483
293.15 K	8.48e-05	0.00074	0.000581
298.15 K	0.000113	0.000832	0.000701
303.15 K	0.000144	0.000939	0.000836
308.15 K	0.000187	0.00107	0.00102
313.15 K	0.000236	0.0012	0.00123
318.15 K	0.000291	0.00136	0.0015
323.15 K	0.000347	0.00155	0.00182
328.15 K	0.000418	0.00175	0.00224
333.15 K	0.000493	0.002	0.00274
